In paper PMC8648872, “A host-directed macrocyclic peptide therapeutic for MDR gram negative bacterial infections” (Scientific Reports, 2021):
Values after ≈ are worked out from the molar mass of the structure shown. Where two headings read alike, the source gives them in different places. Where a SMILES comes first, the peptide text is derived from it. Bridges are numbered along the chain shown (N, C = ends).

What was measured:
[1] = test system: Kp-1705 (K. pneumoniae BAA-1705); experiment: Kp-1705 bacteremic sepsis, survival; assay type: in vivo, BALB/c mice; details: Kp-1705 i.p. in BALB/c mice; single i.p. dose 1.25 mg/kg 1 h p.i.
Method: BALB/c mice (Jackson Laboratories) 8–10 weeks of age were acclimated (3–5 to a cage for at least 5 days prior to infection) in a thermostatically controlled room with 12 h light/dark cycle. Cryopreserved K. pneumoniae cells were thawed and adjusted to a density of 6–10 × 10^8 CFU/ml, confirmed by plating on trypticase soy agar (TSA) plates. E. coli BAA-2340 was grown to log-phase in trypticase soy broth, pelleted, washed with PBS, and resuspended in PBS at 0.5–1 × 10^9 CFU/ml. Mice were infected by i.p. injection of 2–5 × 10^8 CFU of Kp-1705 or 3–6 × 10^7 CFU of E. coli BAA-2340 using a 28 g needle in a volume of 0.5 ml. Post-infection, mice were observed three times a day for at least 4 days and then daily for 28 days. Mice were euthanized when they became moribund. All experiments used both male and female mice and were repeated at least twice.

[2] = test system: K. pneumoniae BAA-1705 (KPC-2); experiment: microbe, parasite or virus in culture; assay type: cell-based; details: 37 °C
Method: (§1) Bacterial strains were obtained from American Type Culture Collection. K. pneumoniae strains included BAA-1705 (blaKPC-2, hypermucoid), BAA-2146 (blaNDM-1), BAA-700603 (SHV-18, extended spectrum β-lactamase, ESBL), and BAA-1706 (non-CRE reference strain). E. coli strains included BAA-2340 (blaKPC-2), BAA-2471 (blaNDM-1), and ML35 (non-CRE reference strain).
(§2) Minimum inhibitory concentration (MIC) assays were performed ± 50% heat-inactivated mouse serum using Clinical and Laboratory Standards Institute (CLSI; document M07-A9) protocols. Bacteria (5 × 10^5 CFU/ml) were incubated with antibiotics or peptide for 20 h at 37 °C, and bacterial growth was determined by A620 using a SpectraMax M5e plate reader.

[3] = test system: K. pneumoniae BAA-2146 (NDM-1); experiment: microbe, parasite or virus in culture; assay type: cell-based
Method: as §1, §2

[4] = test system: K. pneumoniae 700603 (ESBL); experiment: microbe, parasite or virus in culture; assay type: cell-based
Method: as §1, §2

[5] = test system: E. coli ML35; experiment: microbe, parasite or virus in culture; assay type: cell-based; details: E. coli ML35, no MDR factor
Method: as §1, §2

[6] = test system: E. coli BAA-2340 (KPC-2); experiment: microbe, parasite or virus in culture; assay type: cell-based
Method: as §1, §2

[7] = test system: E. coli BAA-2471 (NDM-1); experiment: microbe, parasite or virus in culture; assay type: cell-based
Method: as §1, §2

[8] = test system: K. pneumoniae BAA-1706; experiment: microbe, parasite or virus in culture; assay type: cell-based
Method: as §1, §2

[9] = test system: disseminated candidiasis; details: mouse models of disseminated candidiasis; cited from earlier work
Description: MTD12813 is a bioinspired macrocyclic peptide that is structurally related to naturally occurring θ-defensins. RTD-1, the prototype θ-defensin, was identified as a broad-spectrum antimicrobial peptide in vitro[8],[9]. […] Mechanisms implicated in the moderation of cytokine-driven inflammation include modulation of NFκB and MAPK pathways, suppression of TNF release via the inhibition of the pro-TNF sheddase TACE (ADAM17)[26], and dis ...

[10] = test system: CRE and non-CRE strains of K. pneumoniae and E. coli; assay type: cell-based; details: standard CLSI assay conditions
Method: as §1, §2

[11] = Klebsiella pneumoniae, BAA1705, CLSI M07-A9, 5 × 10^5 CFU/ml, 20 h, A620, no serum, read-out: MIC
[12] = Klebsiella pneumoniae, BAA2146, 50% heat inactivated mouse serum, read-out: MIC
[13] = Klebsiella pneumoniae, BAA2146, CLSI, 20 h, 37 °C, A620, no serum, read-out: MIC
[14] = Klebsiella pneumoniae, 50% heat inactivated mouse serum, read-out: MIC
[15] = Klebsiella pneumoniae, CLSI, 20 h, 37 °C, A620, no serum, read-out: MIC
[16] = Escherichia coli, 50% heat inactivated mouse serum, read-out: MIC
[17] = Escherichia coli, CLSI, 20 h, 37 °C, A620, no serum, read-out: MIC
[18] = Escherichia coli, BAA2471, 50% heat inactivated mouse serum, read-out: MIC
[19] = Escherichia coli, BAA2471, CLSI, 20 h, 37 °C, A620, no serum, read-out: MIC
[20] = Klebsiella pneumoniae, BAA1706, K. pneumoniae BAA-1706, no MDR factor, 50% heat inactivated mouse serum, read-out: MIC
[21] = in the presence of 50% heat inactivated mouse serum, 20 h, A620
[22] = CLSI M07-A9, 5 × 10^5 CFU/ml, 20 h, A620, no serum
[23] = 50% heat inactivated mouse serum
[24] = CLSI, 20 h, 37 °C, A620, no serum
[25] = E. coli BAA-2340, KPC-2, 50% heat inactivated mouse serum
[26] = E. coli BAA-2340, KPC-2, CLSI, 20 h, 37 °C, A620, no serum
[27] = K. pneumoniae BAA-1706, no MDR factor, 50% heat inactivated mouse serum
[28] = K. pneumoniae BAA-1706, no MDR factor, CLSI, 20 h, 37 °C, A620, no serum

| Compound | long term (≥ 28 days) survival [1] | MIC [2, 11] [µg/mL] | MIC [3, 12] [µg/mL] | MIC [3, 13] [µg/mL] | MIC [4, 14] [µg/mL] | MIC [4, 15] [µg/mL] | MIC [2, 21] [µg/mL] | MIC [2, 22] [µg/mL] | MIC [3, 23] [µg/mL] | MIC [3, 24] [µg/mL] | MIC [4, 23] [µg/mL] | MIC [4, 24] [µg/mL] | MIC [5, 23] [µg/mL] | MIC [5, 24] [µg/mL] | MIC [6, 25] [µg/mL] | MIC [6, 26] [µg/mL] | MIC [7, 23] [µg/mL] | MIC [7, 24] [µg/mL] | MIC [8, 27] [µg/mL] | MIC [8, 28] [µg/mL] | also measured |
| --- | --- | --- | --- | --- | --- | --- | --- | --- | --- | --- | --- | --- | --- | --- | --- | --- | --- | --- | --- | --- | --- |
| C[C@@H](O)[C@H]1C(=O)N2C(C(=O)O)=C(SCCN=CN)C[C@H]12 [Imipenem] | neither carbapenem provided significant survival benefit | > 100 | 25 (≈ 83.5 µM) | > 100 | < 0.78 | < 0.78 | – | – | – | – | – | – | – | – | – | – | – | – | – | – | MIC ([2]; Klebsiella pneumoniae, BAA1705, 20 h, in the presence of 50% heat inactivated mouse serum, A620): 12.5 µg/mL; MIC [5, 16]: < 0.78 µg/mL; MIC [5, 17]: < 0.78 µg/mL; MIC ([6]; Escherichia coli, BAA2340): 6.25 µg/mL (≈ 20.9 µM); MIC ([6]; Escherichia coli, BAA2340, E. coli BAA-2340, KPC-2, CLSI, 20 h, 37 °C, A620, no serum, read-out: MIC): 25 µg/mL (≈ 83.5 µM); MIC [7, 18]: 25 µg/mL (≈ 83.5 µM); MIC [7, 19]: 50 µg/mL (≈ 167 µM); MIC [8, 20]: < 0.78 µg/mL; MIC ([8]; Klebsiella pneumoniae, BAA1706, K. pneumoniae BAA-1706, no MDR factor, CLSI, 20 h, 37 °C, A620, no serum, read-out: MIC): 3.13 µg/mL (≈ 10.5 µM) |
| C[C@@H](O)[C@H]1C(=O)N2C(C(=O)O)=C(S[C@@H]3CN[C@H](C(=O)N(C)C)C3)[C@H](C)[C@H]12 [Meropenem] | neither carbapenem provided significant survival benefit | 50 (≈ 130 µM) | > 100 | 100 (≈ 261 µM) | < 0.78 | < 0.78 | 50 | – | – | – | – | – | – | – | – | – | – | – | – | – | MIC [5, 16]: < 0.78 µg/mL; MIC [5, 17]: < 0.78 µg/mL; MIC ([6]; Escherichia coli, BAA2340): 6.25 µg/mL (≈ 16.3 µM); MIC ([6]; Escherichia coli, BAA2340, 20 h): 6.25 µg/mL (≈ 16.3 µM); MIC [7, 18]: > 100 µg/mL; MIC [7, 19]: 50 µg/mL (≈ 130 µM); MIC ([8]; Klebsiella pneumoniae, BAA1706, 20 h): 1.56 µg/mL (≈ 4.07 µM); MIC [8, 20]: < 0.78 µg/mL |
| CC[C@H](C)[C@@H]1NC(=O)[C@@H]2CSSC[C@H](NC(=O)[C@H](CCCNC(=N)N)NC(=O)[C@@H]3CSSC[C@H](NC1=O)C(=O)N[C@@H]([C@@H](C)O)C(=O)N[C@@H](CCCNC(=N)N)C(=O)NCC(=O)N[C@@H](Cc1ccccc1)C(=O)N3)C(=O)N[C@@H](CC(C)C)C(=O)N[C@H]1CSSC[C@H](NC(=O)[C@H](C(C)C)NC(=O)CNC(=O)[C@H](CCCNC(=N)N)NC(=O)[C@H](CCCNC(=N)N)NC1=O)C(=O)N[C@@H](CCCNC(=N)N)C(=O)N2 [RTD-1] (cyclo(GFCRCLCRRGVCRCICTR); disulfide 3-16, 5-14, 7-12) | – | – | – | – | – | – | > 100 | > 100 | > 100 | 100 (≈ 48 µM) | > 100 | > 100 | > 100 | 25 (≈ 12 µM) | > 100 | 50 (≈ 24 µM) | > 100 | 25 (≈ 12 µM) | > 100 | > 100 | plasma Cmax as share of the MIC of the peptide [9]: < 1% |
| Colistin | 100% | – | – | – | – | – | < 0.78 | < 0.78 | < 0.78 | < 0.78 | < 0.78 | < 0.78 | < 0.78 | < 0.78 | < 0.78 | < 0.78 | < 0.78 | < 0.78 | < 0.78 | < 0.78 | MIC against all seven organisms of the panel [10]: < 0.78 µg/mL |
| Polymyxin B | 95% | – | – | – | – | – | < 0.78 | < 0.78 | < 0.78 | < 0.78 | < 0.78 | < 0.78 | < 0.78 | < 0.78 | < 0.78 | < 0.78 | < 0.78 | < 0.78 | < 0.78 | < 0.78 | MIC against all seven organisms of the panel [10]: < 0.78 µg/mL |
